Assays:
[1] = target: T1, Mitogen-activated protein kinase kinase kinase 12 (Homo sapiens) (UniProt Q12852); experiment: Selectivity interaction (KinomeScan (DiscoverX)) EUB0001079a MAP3K12; conditions: at 1 µM
T1 sequence (whole entry): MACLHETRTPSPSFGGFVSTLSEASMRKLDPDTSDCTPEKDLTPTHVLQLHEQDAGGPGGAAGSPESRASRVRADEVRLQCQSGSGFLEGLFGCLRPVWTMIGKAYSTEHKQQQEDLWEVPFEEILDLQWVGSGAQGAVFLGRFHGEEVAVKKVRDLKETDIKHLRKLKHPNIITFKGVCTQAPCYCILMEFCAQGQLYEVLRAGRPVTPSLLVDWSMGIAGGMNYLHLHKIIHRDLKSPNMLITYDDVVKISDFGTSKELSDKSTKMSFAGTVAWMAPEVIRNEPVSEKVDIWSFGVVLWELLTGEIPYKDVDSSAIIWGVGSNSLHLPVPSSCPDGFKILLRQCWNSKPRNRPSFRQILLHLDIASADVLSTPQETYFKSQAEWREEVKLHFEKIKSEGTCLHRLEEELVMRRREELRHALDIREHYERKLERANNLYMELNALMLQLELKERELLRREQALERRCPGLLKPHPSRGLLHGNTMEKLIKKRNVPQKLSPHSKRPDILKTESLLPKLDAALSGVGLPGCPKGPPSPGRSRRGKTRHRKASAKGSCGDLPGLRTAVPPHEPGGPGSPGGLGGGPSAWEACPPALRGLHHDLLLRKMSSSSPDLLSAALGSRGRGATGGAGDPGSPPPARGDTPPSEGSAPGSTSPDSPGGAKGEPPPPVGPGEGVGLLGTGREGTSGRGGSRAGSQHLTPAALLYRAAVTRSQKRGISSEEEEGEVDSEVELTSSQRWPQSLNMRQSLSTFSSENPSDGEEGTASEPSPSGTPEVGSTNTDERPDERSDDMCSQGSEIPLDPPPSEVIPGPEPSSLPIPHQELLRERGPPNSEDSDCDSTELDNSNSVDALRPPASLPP

[2] = target: Cyclin-dependent kinase-like 3 (Homo sapiens) (UniProt Q8IVW4); experiment: Selectivity interaction (KinomeScan (DiscoverX)) EUB0000618a CDKL3; conditions: at 10 µM
Sequence of Cyclin-dependent kinase-like 3 (Homo sapiens) (Q8IVW4 whole entry, looked up): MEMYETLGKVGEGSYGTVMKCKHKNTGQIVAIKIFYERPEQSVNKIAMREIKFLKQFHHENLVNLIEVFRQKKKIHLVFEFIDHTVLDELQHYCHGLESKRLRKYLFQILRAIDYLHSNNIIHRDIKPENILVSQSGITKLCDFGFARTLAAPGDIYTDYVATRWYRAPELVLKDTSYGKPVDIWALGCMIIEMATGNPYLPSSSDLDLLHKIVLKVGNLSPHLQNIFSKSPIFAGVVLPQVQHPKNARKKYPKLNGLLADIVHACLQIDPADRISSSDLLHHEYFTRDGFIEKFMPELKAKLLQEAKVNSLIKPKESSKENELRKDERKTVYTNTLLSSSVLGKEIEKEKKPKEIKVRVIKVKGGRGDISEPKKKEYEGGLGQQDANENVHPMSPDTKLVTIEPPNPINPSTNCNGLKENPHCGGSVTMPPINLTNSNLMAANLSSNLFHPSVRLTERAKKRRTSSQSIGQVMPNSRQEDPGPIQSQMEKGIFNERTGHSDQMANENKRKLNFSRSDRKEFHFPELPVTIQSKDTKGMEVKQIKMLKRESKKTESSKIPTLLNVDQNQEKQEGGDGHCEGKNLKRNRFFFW

[3] = target: MAP kinase-interacting serine/threonine-protein kinase 2 (Homo sapiens, UniProt Q9HBH9); experiment: Selectivity interaction (KinomeScan (DiscoverX)) EUB0000618a MKNK2; conditions: at 10 µM
Sequence of MAP kinase-interacting serine/threonine-protein kinase 2 (Q9HBH9 whole entry, looked up): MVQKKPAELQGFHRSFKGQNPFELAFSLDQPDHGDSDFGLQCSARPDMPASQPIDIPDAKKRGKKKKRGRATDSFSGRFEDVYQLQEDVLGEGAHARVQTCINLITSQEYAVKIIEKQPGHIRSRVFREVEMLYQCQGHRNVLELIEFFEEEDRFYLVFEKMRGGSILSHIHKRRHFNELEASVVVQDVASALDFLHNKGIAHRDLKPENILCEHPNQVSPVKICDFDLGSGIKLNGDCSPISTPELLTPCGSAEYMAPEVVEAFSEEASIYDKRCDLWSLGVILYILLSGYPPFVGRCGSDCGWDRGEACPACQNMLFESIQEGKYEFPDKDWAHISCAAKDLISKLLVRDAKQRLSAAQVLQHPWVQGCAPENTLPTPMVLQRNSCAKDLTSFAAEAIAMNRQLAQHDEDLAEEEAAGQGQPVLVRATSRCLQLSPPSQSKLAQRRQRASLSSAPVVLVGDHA

[4] = target: Microtubule-associated serine/threonine-protein kinase 1 (Homo sapiens) (UniProt Q9Y2H9); experiment: Selectivity interaction (KinomeScan (DiscoverX)) EUB0000607a MAST1; conditions: at 10 µM
Sequence of Microtubule-associated serine/threonine-protein kinase 1 (Homo sapiens) (Q9Y2H9 whole entry, looked up): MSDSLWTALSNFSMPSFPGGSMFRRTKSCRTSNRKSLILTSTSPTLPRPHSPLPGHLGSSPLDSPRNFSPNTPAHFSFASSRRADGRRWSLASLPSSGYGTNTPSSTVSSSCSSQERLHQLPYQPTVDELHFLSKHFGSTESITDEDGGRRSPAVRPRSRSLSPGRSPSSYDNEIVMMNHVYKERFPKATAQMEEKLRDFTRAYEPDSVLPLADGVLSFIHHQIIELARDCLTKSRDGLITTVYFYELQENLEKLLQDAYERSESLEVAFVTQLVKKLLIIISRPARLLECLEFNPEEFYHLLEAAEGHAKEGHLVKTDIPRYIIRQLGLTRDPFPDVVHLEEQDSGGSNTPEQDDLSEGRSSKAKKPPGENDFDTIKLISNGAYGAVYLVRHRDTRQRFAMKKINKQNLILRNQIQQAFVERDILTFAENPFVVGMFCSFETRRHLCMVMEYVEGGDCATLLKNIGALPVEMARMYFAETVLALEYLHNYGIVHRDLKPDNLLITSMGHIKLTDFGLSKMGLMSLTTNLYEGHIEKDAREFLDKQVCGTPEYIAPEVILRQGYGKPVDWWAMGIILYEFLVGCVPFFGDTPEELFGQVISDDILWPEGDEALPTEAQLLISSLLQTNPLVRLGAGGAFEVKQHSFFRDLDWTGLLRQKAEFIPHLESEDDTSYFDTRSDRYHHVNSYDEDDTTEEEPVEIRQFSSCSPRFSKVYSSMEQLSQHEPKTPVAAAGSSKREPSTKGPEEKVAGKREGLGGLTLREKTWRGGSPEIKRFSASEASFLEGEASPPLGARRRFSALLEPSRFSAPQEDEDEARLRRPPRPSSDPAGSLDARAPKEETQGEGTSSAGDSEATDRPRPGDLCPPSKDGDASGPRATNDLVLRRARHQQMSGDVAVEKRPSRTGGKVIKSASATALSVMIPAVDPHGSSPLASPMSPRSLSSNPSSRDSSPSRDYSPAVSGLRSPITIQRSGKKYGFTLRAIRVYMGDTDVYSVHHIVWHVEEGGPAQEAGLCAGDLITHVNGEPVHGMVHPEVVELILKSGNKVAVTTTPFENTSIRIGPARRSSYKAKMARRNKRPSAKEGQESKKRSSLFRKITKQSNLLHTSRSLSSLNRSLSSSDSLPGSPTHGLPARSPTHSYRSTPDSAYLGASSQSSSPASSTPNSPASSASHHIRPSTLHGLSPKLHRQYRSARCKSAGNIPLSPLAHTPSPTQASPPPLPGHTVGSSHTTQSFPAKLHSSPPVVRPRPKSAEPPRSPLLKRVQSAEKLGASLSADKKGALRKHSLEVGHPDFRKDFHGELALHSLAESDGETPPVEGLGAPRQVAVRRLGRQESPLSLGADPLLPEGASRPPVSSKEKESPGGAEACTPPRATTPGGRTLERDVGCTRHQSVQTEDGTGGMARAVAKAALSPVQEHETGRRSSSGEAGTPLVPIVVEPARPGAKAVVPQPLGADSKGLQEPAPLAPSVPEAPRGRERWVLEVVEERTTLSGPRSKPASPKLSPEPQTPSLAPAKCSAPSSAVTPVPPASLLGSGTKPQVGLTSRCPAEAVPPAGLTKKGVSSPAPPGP

[5] = target: Mitogen-activated protein kinase kinase kinase kinase 1 (Homo sapiens) (UniProt Q92918); experiment: Selectivity interaction (Kinase panel (KiNativ target engagement assay in Jurkat cells)) EUB0001635a MAP4K1; assay type: cell-based; conditions: Selectivity number of off-targets 0.0, Selectivity number of targets 233.0, Source Knowledge https://www.sciencedirect.com/science/article/pii/S2451945619300674?via%3Dihub, at 1 µM
Sequence of Mitogen-activated protein kinase kinase kinase kinase 1 (Homo sapiens) (Q92918 whole entry, looked up): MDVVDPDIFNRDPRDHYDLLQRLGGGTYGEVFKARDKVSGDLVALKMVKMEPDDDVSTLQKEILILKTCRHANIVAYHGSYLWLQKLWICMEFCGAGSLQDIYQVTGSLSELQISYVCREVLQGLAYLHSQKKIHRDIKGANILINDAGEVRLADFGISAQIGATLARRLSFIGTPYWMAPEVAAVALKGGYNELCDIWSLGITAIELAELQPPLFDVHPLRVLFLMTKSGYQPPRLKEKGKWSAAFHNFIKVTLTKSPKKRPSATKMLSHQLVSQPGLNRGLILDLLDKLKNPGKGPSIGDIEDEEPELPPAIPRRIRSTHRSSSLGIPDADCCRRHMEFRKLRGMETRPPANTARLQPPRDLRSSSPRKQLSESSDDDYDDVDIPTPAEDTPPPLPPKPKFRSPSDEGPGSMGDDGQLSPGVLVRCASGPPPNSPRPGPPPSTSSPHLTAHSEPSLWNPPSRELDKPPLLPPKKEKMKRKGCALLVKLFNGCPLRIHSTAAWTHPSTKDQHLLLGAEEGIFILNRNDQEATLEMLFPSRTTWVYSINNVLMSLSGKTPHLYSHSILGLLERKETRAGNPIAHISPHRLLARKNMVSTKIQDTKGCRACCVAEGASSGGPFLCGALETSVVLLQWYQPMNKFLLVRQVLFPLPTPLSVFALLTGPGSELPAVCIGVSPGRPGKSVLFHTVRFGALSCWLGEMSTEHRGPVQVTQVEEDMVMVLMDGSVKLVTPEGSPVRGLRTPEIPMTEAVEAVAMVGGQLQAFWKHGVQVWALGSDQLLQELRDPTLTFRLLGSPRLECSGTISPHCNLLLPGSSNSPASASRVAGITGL

[6] = target: Mitogen-activated protein kinase kinase kinase 11 (Homo sapiens) (UniProt Q16584); conditions: at 10 µM
[7] = target: T2, Ephrin type-B receptor 1 (Homo sapiens) (UniProt P54762); conditions: at 10 µM
T2 sequence (whole entry): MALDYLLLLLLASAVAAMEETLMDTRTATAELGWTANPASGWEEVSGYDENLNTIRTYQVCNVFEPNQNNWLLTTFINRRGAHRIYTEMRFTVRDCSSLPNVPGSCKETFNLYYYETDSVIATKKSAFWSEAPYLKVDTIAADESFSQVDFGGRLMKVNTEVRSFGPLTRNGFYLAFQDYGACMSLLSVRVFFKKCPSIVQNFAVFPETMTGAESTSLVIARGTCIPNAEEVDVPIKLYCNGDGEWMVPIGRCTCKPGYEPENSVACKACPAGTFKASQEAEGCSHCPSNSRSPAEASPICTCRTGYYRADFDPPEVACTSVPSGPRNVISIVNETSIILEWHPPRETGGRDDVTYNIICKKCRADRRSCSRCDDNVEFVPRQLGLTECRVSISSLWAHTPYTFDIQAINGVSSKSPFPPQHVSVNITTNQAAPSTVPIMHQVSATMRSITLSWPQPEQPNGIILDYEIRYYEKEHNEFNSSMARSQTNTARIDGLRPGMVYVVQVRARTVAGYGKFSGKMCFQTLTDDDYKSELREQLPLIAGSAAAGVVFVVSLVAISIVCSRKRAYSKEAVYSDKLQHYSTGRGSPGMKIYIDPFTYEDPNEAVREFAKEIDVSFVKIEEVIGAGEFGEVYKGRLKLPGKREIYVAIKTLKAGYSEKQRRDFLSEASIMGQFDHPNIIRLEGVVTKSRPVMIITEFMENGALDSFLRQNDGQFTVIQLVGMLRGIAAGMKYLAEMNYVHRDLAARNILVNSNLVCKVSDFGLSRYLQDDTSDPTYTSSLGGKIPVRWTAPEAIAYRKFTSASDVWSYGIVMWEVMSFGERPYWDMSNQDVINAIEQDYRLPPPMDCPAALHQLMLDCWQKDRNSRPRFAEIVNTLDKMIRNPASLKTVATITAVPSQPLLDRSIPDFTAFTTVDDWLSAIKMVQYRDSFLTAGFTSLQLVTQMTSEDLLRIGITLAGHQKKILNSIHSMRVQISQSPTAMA

[8] = target: Tyrosine-protein kinase FRK (Homo sapiens) (UniProt P42685); experiment: Selectivity interaction (ProQinase) EUB0000171b FRK
Sequence of Tyrosine-protein kinase FRK (Homo sapiens) (P42685 whole entry): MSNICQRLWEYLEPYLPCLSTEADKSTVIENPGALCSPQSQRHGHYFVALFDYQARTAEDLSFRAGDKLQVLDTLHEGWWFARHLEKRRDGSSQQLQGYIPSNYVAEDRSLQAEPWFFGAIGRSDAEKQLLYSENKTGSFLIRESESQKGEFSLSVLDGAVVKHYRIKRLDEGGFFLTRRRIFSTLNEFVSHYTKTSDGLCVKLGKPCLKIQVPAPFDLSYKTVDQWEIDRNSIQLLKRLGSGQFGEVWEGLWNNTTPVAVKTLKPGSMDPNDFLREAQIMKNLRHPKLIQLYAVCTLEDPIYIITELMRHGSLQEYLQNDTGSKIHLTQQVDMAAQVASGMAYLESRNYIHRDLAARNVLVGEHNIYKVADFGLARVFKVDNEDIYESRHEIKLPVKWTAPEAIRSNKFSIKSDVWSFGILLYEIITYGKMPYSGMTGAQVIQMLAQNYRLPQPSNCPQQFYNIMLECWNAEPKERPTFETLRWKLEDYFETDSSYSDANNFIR

Insulin receptor = Insulin receptor (Homo sapiens, UniProt P06213); experiment: Selectivity interaction (ProQinase) EUB0000171b INSR; conditions: at 1 µM
[9] = Selectivity interaction (KinomeScan (DiscoverX)) EUB0000666a PKNB; conditions: at 10 µM
[10] = target: cAMP-dependent protein kinase catalytic subunit alpha (Homo sapiens, UniProt P17612); experiment: Selectivity interaction (KinomeScan (DiscoverX)) EUB0000666a PRKACA; conditions: at 10 µM
[11] = target: Cyclin-dependent kinase 5 (Homo sapiens, UniProt Q00535); experiment: Selectivity interaction (KinomeScan (DiscoverX)) EUB0000666a CDK5; conditions: at 10 µM
Sequence of Cyclin-dependent kinase 5 (Q00535 whole entry, looked up, the tested form may be a part): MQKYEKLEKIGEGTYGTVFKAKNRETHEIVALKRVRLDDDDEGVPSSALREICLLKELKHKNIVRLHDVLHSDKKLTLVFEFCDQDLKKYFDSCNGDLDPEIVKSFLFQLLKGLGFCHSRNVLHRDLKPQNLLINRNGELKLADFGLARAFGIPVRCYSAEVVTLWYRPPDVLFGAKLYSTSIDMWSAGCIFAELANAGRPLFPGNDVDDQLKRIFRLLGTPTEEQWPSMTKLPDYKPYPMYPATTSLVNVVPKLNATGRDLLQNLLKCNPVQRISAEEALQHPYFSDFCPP

[12] = target: Bromodomain adjacent to zinc finger domain protein 1A (Homo sapiens) (UniProt Q9NRL2); experiment: Selectivity interaction (Human bromodomain panel (DSF assay)) EUB0000233b BAZ1A

SMILES: Nc1cnc(N2CCc3cc(S(=O)(=O)Nc4c(F)cc(Cl)cc4F)cc(N4CCCC4=O)c32)nc1 [TP-020n]
- % of control [1]: 100%

SMILES: O[C@H]1CC[C@H](Nc2ncc3nc(Nc4c(F)cc(F)cc4F)n([C@H]4CCOC4)c3n2)CC1
- % of control [2]: 86%
- % of control [3]: 100%

SMILES: CNC(=O)Nc1ccc(-c2nc(N3CC4CCC(C3)O4)c3cnn(C4CCC5(CC4)OCCO5)c3n2)cc1
- % of control [4]: 95%

SMILES: C=CC(=O)Nc1ccc(C(=O)Nc2[nH]nc3c2CN(C(=O)N[C@H](CN(C)C)c2ccccc2)C3(C)C)cc1
- % of engagement [5]: 4.4%

SMILES: Cc1cc([C@@H](C)Nc2ccccc2C(=O)O)c2nc(N3CCOCC3)cc(=O)n2c1 [AZD-6482]
- % of control [6]: 100%
- % of control [7]: 98%

SMILES: C=CC(=O)Nc1cccc(C(=O)Nc2ccc(Nc3cc(-c4[nH]c(SC)nc4C)ccn3)cc2)c1
- % of control ([8]; at 1 µM): 99%
- % of control ([8]; at 5 µM): 75%
- % of control (Insulin receptor): 81%

SMILES: O=C(NOC[C@H](O)CO)c1ccc(F)c(F)c1Nc1ccc(I)cc1F
- % of control [9]: 91%
- % of control [10]: 72%
- % of control [11]: 100%

SMILES: CN(C)CCCOc1ccc(-c2cc(NCCCn3cccn3)nc(S(C)(=O)=O)n2)cc1
- dTM [12]: < 2 K

From ChEMBL document CHEMBL5465560, “Selectivity Literature for EUbOPEN Chemogenomic Library” (2024)
